Our source for the IC50 values is BindingDB's records for doi:10.1016/j.bmc.2010.04.050 (Purdue University, 2010).

This assay addresses Low molecular weight phosphotyrosine protein phosphatase ACP1 (Homo sapiens) (UniProt P24666). In words: Inhibition of human cytoplasmic protein tyrosine phosphatase A assessed as change in enzyme activity at pH 7.

Chain of Low molecular weight phosphotyrosine protein phosphatase ACP1 (Homo sapiens) (P24666 whole entry, looked up): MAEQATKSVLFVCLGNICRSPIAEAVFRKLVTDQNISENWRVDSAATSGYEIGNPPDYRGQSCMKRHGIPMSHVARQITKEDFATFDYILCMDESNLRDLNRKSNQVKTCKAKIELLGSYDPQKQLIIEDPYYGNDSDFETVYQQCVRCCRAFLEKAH

Usually IC50 stands for the concentration needed to halve the response being measured. Take `O=NC(Cc1ccnc2ccccc12)C(=O)O` (stereo unspecified) [2-(hydroxyimino)-3-(quinolin-4-yl)propanoic acid]: the IC50 was 72 µM.
